Test results: ChEMBL document CHEMBL3046000, “Design and synthesis of 1-(benzothiazol-5-yl)-1H-1,2,4-triazol-5-ones as protoporphyrinogen oxidase inhibitors” (Bioorg Med Chem, 2013)

What was measured:
Amaranthus retroflexus [1] = test: Post emergence herbicidal activity against Amaranthus retroflexus seedlings assessed as plant growth inhibition at 150 g ai/ha measured 15 days after compound treatment under greenhouse conditions; type: functional; conditions: 360 h, read-out: GI
Echinochloa crus-galli [2] = test: Post emergence herbicidal activity against Echinochloa crus-galli (barnyard grass) seedlings assessed as plant growth inhibition at 150 g ai/ha measured 15 days after compound treatment under greenhouse conditions; type: functional; conditions: 360 h, read-out: GI
[3] = target: T1, Protoporphyrinogen oxidase, chloroplastic (Nicotiana tabacum, UniProt O24163); test: Inhibition of Nicotiana tabacum (tobacco) recombinant PPO assessed as protoporphyrin IX formation at room temperature by fluorimetric assay
T1 sequence (O24163 whole entry): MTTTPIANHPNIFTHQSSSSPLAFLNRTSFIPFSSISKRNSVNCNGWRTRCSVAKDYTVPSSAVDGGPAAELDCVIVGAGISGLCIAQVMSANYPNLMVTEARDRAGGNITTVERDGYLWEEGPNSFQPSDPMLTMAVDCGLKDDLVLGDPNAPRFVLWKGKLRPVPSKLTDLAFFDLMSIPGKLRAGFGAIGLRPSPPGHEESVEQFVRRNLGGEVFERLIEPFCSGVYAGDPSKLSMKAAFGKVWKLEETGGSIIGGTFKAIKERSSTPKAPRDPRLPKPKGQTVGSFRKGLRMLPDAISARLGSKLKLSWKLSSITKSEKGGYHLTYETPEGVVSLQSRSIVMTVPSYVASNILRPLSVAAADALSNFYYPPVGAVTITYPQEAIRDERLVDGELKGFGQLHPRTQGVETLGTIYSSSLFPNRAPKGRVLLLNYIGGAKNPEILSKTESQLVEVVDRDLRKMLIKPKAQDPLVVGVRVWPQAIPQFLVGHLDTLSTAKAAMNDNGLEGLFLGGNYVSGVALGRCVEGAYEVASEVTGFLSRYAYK

Chenopodium album [4] = test: Post-emergence herbicidal activity against Chenopodium album seedlings assessed as plant growth inhibition at 150 g ai/ha measured 15 days after compound treatment under greenhouse conditions; type: functional; conditions: 360 h, read-out: GI
Setaria faberi [5] = test: Post-emergence herbicidal activity against Setaria faberi (Giant Foxtail) seedlings assessed as plant growth inhibition at 150 g ai/ha measured 15 days after compound treatment under greenhouse conditions; type: functional; conditions: 360 h, read-out: GI
Digitaria sanguinalis [6] = test: Post-emergence herbicidal activity against Digitaria sanguinalis (hairy crabgrass) seedlings assessed as plant growth inhibition at 150 g ai/ha measured 15 days after compound treatment under greenhouse conditions; type: functional; conditions: 360 h, read-out: GI
Brassica juncea [7] = test: Post-emergence herbicidal activity against Brassica juncea seedlings assessed as plant growth inhibition at 150 g ai/ha measured 15 days after compound treatment under greenhouse conditions; type: functional; conditions: 360 h, read-out: GI
Brassica juncea [8] = test: Post-emergence herbicidal activity against Brassica juncea seedlings assessed as plant growth inhibition at 75 g ai/ha measured 15 days after compound treatment under greenhouse conditions; type: functional; conditions: 360 h, read-out: GI
Amaranthus retroflexus [9] = test: Post emergence herbicidal activity against Amaranthus retroflexus seedlings assessed as plant growth inhibition at 75 g ai/ha measured 15 days after compound treatment under greenhouse conditions; type: functional; conditions: 360 h, read-out: GI
Echinochloa crus-galli [10] = test: Post emergence herbicidal activity against Echinochloa crus-galli (barnyard grass) seedlings assessed as plant growth inhibition at 75 g ai/ha measured 15 days after compound treatment under greenhouse conditions; type: functional; conditions: 360 h, read-out: GI
Brassica juncea [11] = test: Post-emergence herbicidal activity against Brassica juncea seedlings assessed as plant growth inhibition at 37.5 g ai/ha measured 15 days after compound treatment under greenhouse conditions; type: functional; conditions: 360 h, read-out: GI
Setaria faberi [12] = test: Post-emergence herbicidal activity against Setaria faberi (Giant Foxtail) seedlings assessed as plant growth inhibition at 75 g ai/ha measured 15 days after compound treatment under greenhouse conditions; type: functional; conditions: 360 h, read-out: GI
Digitaria sanguinalis [13] = test: Post-emergence herbicidal activity against Digitaria sanguinalis (hairy crabgrass) seedlings assessed as plant growth inhibition at 37.5 g ai/ha measured 15 days after compound treatment under greenhouse conditions; type: functional; conditions: 360 h, read-out: GI
Echinochloa crus-galli [14] = test: Post emergence herbicidal activity against Echinochloa crus-galli (barnyard grass) seedlings assessed as plant growth inhibition at 37.5 g ai/ha measured 15 days after compound treatment under greenhouse conditions; type: functional; conditions: 360 h, read-out: GI
Chenopodium album [15] = test: Post-emergence herbicidal activity against Chenopodium album seedlings assessed as plant growth inhibition at 75 g ai/ha measured 15 days after compound treatment under greenhouse conditions; type: functional; conditions: 360 h, read-out: GI
Amaranthus retroflexus [16] = test: Post emergence herbicidal activity against Amaranthus retroflexus seedlings assessed as plant growth inhibition at 37.5 g ai/ha measured 15 days after compound treatment under greenhouse conditions; type: functional; conditions: 360 h, read-out: GI
Digitaria sanguinalis [17] = test: Post-emergence herbicidal activity against Digitaria sanguinalis (hairy crabgrass) seedlings assessed as plant growth inhibition at 75 g ai/ha measured 15 days after compound treatment under greenhouse conditions; type: functional; conditions: 360 h, read-out: GI
Chenopodium album [18] = test: Post-emergence herbicidal activity against Chenopodium album seedlings assessed as plant growth inhibition at 37.5 g ai/ha measured 15 days after compound treatment under greenhouse conditions; type: functional; conditions: 360 h, read-out: GI
Setaria faberi [19] = test: Post-emergence herbicidal activity against Setaria faberi (Giant Foxtail) seedlings assessed as plant growth inhibition at 37.5 g ai/ha measured 15 days after compound treatment under greenhouse conditions; type: functional; conditions: 360 h, read-out: GI

`CCCCSc1nc2cc(-n3nc(C)n(C(F)F)c3=O)c(Cl)cc2s1` gave an inhibition of growth at 150 g/ha (Amaranthus retroflexus [1]) of less than 50%, an inhibition of growth at 150 g/ha (Echinochloa crus-galli [2]) of less than 50% and a Ki [3] of 2970 nM. It also gave an inhibition of growth at 150 g/ha (Chenopodium album [4]) of less than 50%, an inhibition of growth at 150 g/ha (Setaria faberi [5]) of less than 50% and an inhibition of growth at 150 g/ha (Digitaria sanguinalis [6]) of less than 50%. For the same molecule, the inhibition of growth at 150 g/ha (Brassica juncea [7]) was 50%.
`CCOC(=O)Sc1nc2cc(-n3nc(C)n(C(F)F)c3=O)c(F)cc2s1` was tested, and the inhibition of growth at 75 g/ha (Brassica juncea [8]) was less than 50%, the inhibition of growth at 75 g/ha (Amaranthus retroflexus [9]) was less than 50% and the inhibition of growth at 75 g/ha (Echinochloa crus-galli [10]) was less than 50%. It also gave an inhibition of growth at 150 g/ha (Amaranthus retroflexus [1]) of no less than 90%, an inhibition of growth at 150 g/ha (Echinochloa crus-galli [2]) of 50% and a Ki [3] of 580 nM. It also gave an inhibition of growth at 37.5 g/ha (Brassica juncea [11]) of less than 50%, an inhibition of growth at 75 g/ha (Setaria faberi [12]) of less than 50% and an inhibition of growth at 37.5 g/ha (Digitaria sanguinalis [13]) of less than 50%. For the same molecule, the inhibition of growth at 37.5 g/ha (Echinochloa crus-galli [14]) was less than 50%, the inhibition of growth at 75 g/ha (Chenopodium album [15]) was 60% and the inhibition of growth at 150 g/ha (Chenopodium album [4]) was no less than 90%. The inhibition of growth at 150 g/ha (Setaria faberi [5]) was less than 50%, the inhibition of growth at 150 g/ha (Digitaria sanguinalis [6]) was 50% and the inhibition of growth at 37.5 g/ha (Amaranthus retroflexus [16]) was less than 50%. The inhibition of growth at 75 g/ha (Digitaria sanguinalis [17]) was less than 50%, the inhibition of growth at 37.5 g/ha (Chenopodium album [18]) was less than 50% and the inhibition of growth at 150 g/ha (Brassica juncea [7]) was no less than 90%. It also gave an inhibition of growth at 37.5 g/ha (Setaria faberi [19]) of less than 50%.
`COC(=O)Sc1nc2cc(-n3nc(C)n(C(F)F)c3=O)c(F)cc2s1` showed an inhibition of growth at 75 g/ha (Brassica juncea [8]) of 50%, an inhibition of growth at 75 g/ha (Amaranthus retroflexus [9]) of 50% and an inhibition of growth at 75 g/ha (Echinochloa crus-galli [10]) of 50%. The inhibition of growth at 150 g/ha (Amaranthus retroflexus [1]) was no less than 90%, the inhibition of growth at 150 g/ha (Echinochloa crus-galli [2]) was 60% and the Ki [3] was 290 nM. The inhibition of growth at 37.5 g/ha (Brassica juncea [11]) was less than 50%, the inhibition of growth at 75 g/ha (Setaria faberi [12]) was less than 50% and the inhibition of growth at 37.5 g/ha (Digitaria sanguinalis [13]) was 60%. The inhibition of growth at 37.5 g/ha (Echinochloa crus-galli [14]) was 50%, the inhibition of growth at 75 g/ha (Chenopodium album [15]) was no less than 90% and the inhibition of growth at 150 g/ha (Chenopodium album [4]) was no less than 90%. For the same molecule, the inhibition of growth at 150 g/ha (Setaria faberi [5]) was less than 50%, the inhibition of growth at 150 g/ha (Digitaria sanguinalis [6]) was 60% and the inhibition of growth at 37.5 g/ha (Amaranthus retroflexus [16]) was less than 50%. It also gave an inhibition of growth at 75 g/ha (Digitaria sanguinalis [17]) of 60%, an inhibition of growth at 37.5 g/ha (Chenopodium album [18]) of 50% and an inhibition of growth at 150 g/ha (Brassica juncea [7]) of no less than 90%. For the same molecule, the inhibition of growth at 37.5 g/ha (Setaria faberi [19]) was less than 50%.
Molecule `CSc1nc2cc(-n3nc(C)n(C(F)F)c3=O)c(F)cc2s1` has an inhibition of growth at 150 g/ha (Amaranthus retroflexus [1]) of 80%, an inhibition of growth at 150 g/ha (Echinochloa crus-galli [2]) of 50% and a Ki [3] of 510 nM. The inhibition of growth at 150 g/ha (Chenopodium album [4]) was less than 50%, the inhibition of growth at 150 g/ha (Setaria faberi [5]) was 50% and the inhibition of growth at 150 g/ha (Digitaria sanguinalis [6]) was less than 50%. For the same molecule, the inhibition of growth at 150 g/ha (Brassica juncea [7]) was less than 50%.
`COC(=O)Sc1nc2cc(-n3nc(C)n(C(F)F)c3=O)c(Cl)cc2s1` gave an inhibition of growth at 150 g/ha (Amaranthus retroflexus [1]) of less than 50%, an inhibition of growth at 150 g/ha (Echinochloa crus-galli [2]) of less than 50% and an inhibition of growth at 150 g/ha (Chenopodium album [4]) of less than 50%. For the same molecule, the inhibition of growth at 150 g/ha (Setaria faberi [5]) was less than 50%, the inhibition of growth at 150 g/ha (Digitaria sanguinalis [6]) was less than 50% and the inhibition of growth at 150 g/ha (Brassica juncea [7]) was less than 50%.
Molecule `CCOC(=O)C(C)Sc1nc2cc(-n3nc(C)n(C(F)F)c3=O)c(Cl)cc2s1` (stereo unspecified) has an inhibition of growth at 150 g/ha (Amaranthus retroflexus [1]) of no less than 90%, an inhibition of growth at 150 g/ha (Echinochloa crus-galli [2]) of 80% and a Ki [3] of 3390 nM. For the same molecule, the inhibition of growth at 150 g/ha (Chenopodium album [4]) was 60%, the inhibition of growth at 150 g/ha (Setaria faberi [5]) was 80% and the inhibition of growth at 150 g/ha (Digitaria sanguinalis [6]) was 80%. For the same molecule, the inhibition of growth at 150 g/ha (Brassica juncea [7]) was no less than 90%.
Molecule `CCOC(=O)CSc1nc2cc(-n3nc(C)n(C(F)F)c3=O)c(Cl)cc2s1` has an inhibition of growth at 150 g/ha (Amaranthus retroflexus [1]) of 80%, an inhibition of growth at 150 g/ha (Echinochloa crus-galli [2]) of no less than 90% and a Ki [3] of 1370 nM. For the same molecule, the inhibition of growth at 150 g/ha (Chenopodium album [4]) was less than 50%, the inhibition of growth at 150 g/ha (Setaria faberi [5]) was 80% and the inhibition of growth at 150 g/ha (Digitaria sanguinalis [6]) was no less than 90%. For the same molecule, the inhibition of growth at 150 g/ha (Brassica juncea [7]) was no less than 90%.
For `CSc1nc2cc(-n3nc(C)n(C(F)F)c3=O)c(Cl)cc2s1`, the inhibition of growth at 150 g/ha (Amaranthus retroflexus [1]) was 50%, the inhibition of growth at 150 g/ha (Echinochloa crus-galli [2]) was less than 50% and the Ki [3] was 13900 nM. The inhibition of growth at 150 g/ha (Chenopodium album [4]) was 50%, the inhibition of growth at 150 g/ha (Setaria faberi [5]) was less than 50% and the inhibition of growth at 150 g/ha (Digitaria sanguinalis [6]) was 50%. The inhibition of growth at 150 g/ha (Brassica juncea [7]) was 60%.
For `C=CCSc1nc2cc(-n3nc(C)n(C(F)F)c3=O)c(F)cc2s1`, the inhibition of growth at 150 g/ha (Amaranthus retroflexus [1]) was 50%, the inhibition of growth at 150 g/ha (Echinochloa crus-galli [2]) was 80% and the Ki [3] was 200 nM. It also gave an inhibition of growth at 150 g/ha (Chenopodium album [4]) of less than 50%, an inhibition of growth at 150 g/ha (Setaria faberi [5]) of 60% and an inhibition of growth at 150 g/ha (Digitaria sanguinalis [6]) of 60%. The inhibition of growth at 150 g/ha (Brassica juncea [7]) was less than 50%.
